This note sets out measurements from patent US10369133B2, “Immunosuppressive compounds and therapeutics” (UNIVERSITY OF TENNESSEE RESEARCH FOUNDATION, priority 2013, dated 2019).

One assay relates to NF-κB. Nature of the assay: NF-κB SEAP reporter gene assay in INS-1E cells. Format: cell-based, rat. Particulars: printed "at 504" (FIG. 2B: 5 μM); cytokine cocktail 10 ng/mL TNFα, 5 ng/mL IL-1β, 10 ng/mL IFN-γ; 24 hours. The protocol:
Briefly, a plasmid construct containing NF-kB promoter and SEAP gene was transferred into INS-1E cells by lipofectamine. SEAP was then expressed and secreted into culture supernatant and allowed […] detection using a substrate PNPP under 405 nm. […] NF-kB activity was measured 24 hours after addition of cytokine cocktail (10 ng/mL TNFα, 5 ng/mL IL-1β and 10 ng/mL IFN-γ) alone or with JP-3-110 (5 μM) or TNP (5 μM) or MPA (5 μM). Blank, no cytokine stimulation. Cyt, cytokine cocktail. Results are presented as the mean±S.D., n=3.
INS-1E cells which were stably transfected with the SEAP gene containing the response-element for NF-κB were used to screen for anti-inflammatory activity. Briefly, 10^6 cells/well were seeded overnight followed by treatment with 10 ng/mL human recombinant TNFα and either TNP or hybrid drug JP-3-110 (1 μM). SEAP activity was measured 18 h later in supernatant samples (50 µL) using the NF-κB SEAPorter™ Assay Kit (IMGENEX, San Diego, Calif.) and a microplate luminometer. SEAP activity was normalized to the total protein content.
In general terms: Reporter assays use an easily measured gene product as a stand-in for the process of interest.

The subject of another assay is human CD3+ T cells. Nature of the assay: Mixed lymphocyte reaction: proliferation of PHA-stimulated T cells. Format: cell-based. Conditions: data not shown; TNP 5 μM. The protocol:
Briefly, human peripheral blood mononuclear cells PBMCs were isolated from human buffy coat using Ficoll-Paque. […] Results are presented as the mean±S.D., n=6.
PBMCs were isolated using Ficoll Paque. T cells were isolated from PBMCs using Dynabeads for. T cells were stimulated with PHA (1 μg/ml) for 24 h alone or in the presence of TNP (5 μM) or JP-3-110 (5 μM) for additional 4 days. The total number of PBMCs was measured using T4 Automatic Cell Counter (Nexcelom, Lawrence, Mass.). The extent of T cell activation was determined by measuring the level of IL-2, IL-2sRa, TNFα and IFN-γ in the medium using ELISA at indicated time.
Mixed lymphocytes reaction was used to determine the immunosuppressive effects of MPA and JP-3-110. T cells were purified using dynabeads from peripheral blood mononuclear cells (PBMCs), which were initially isolated from human buffy coat (FIG. 8A). […] The levels of IL-2, IL-2sRa, TNFα and IFNγ were detected by ELISA to study the effects of JP-3-110 and MPA on T cell activation.

“(1S,3R,4S,5R)—N-butyl-1,3,4,5-tetrahydroxycyclohexane-1-carboxamide [TNP, reference compound]”: the “NF-κB activities in INS-1E cells” value with NF-κB is given as “significantly reduced”. Besides, the “immunosuppressive effect in mixed lymphocytes reaction” value with human CD3+ T cells is listed as “did not observe any immunosuppressive effect”.
